Assay results from PMC11919836, “Multi-omics analysis reveals Jianpi formula-derived bioactive peptide-YG-22 potentially inhibited colorectal cancer via regulating epigenetic reprogram and signal pathway regulation” (Frontiers in Genetics, 2025).
Where no end group is shown, it is not given here.

What was measured:
HCT116 cells [1] = assay: CCK-8 cell viability assay of candidate peptides; assay type: cell-based; conditions: peptide 5 mg/mL, 24 h, CCK-8, absorbance 450 nm, mean ± SEM n = 3, P < 0.01 vs control
Text: (§1) After comparing the differential expressed peptides between two treatment groups: chemotherapy alone (n = 5) and chemotherapy combined with Jianpi formula (n = 5). Six candidate peptides were finally screened out, including YP-16 (YGRKKRRQRRR-GPSVP), YP-17 (YGRKKRRQRRR-OLTSGP), YG-22 (YGRKKRRQRRR-DGSPGKDGVRG), YM-22 (YGRKKRRQRRR-LGEAFDGARDM), YP-23 (YGRKKRRQRRR-MEPLGRQLTSGP), and YD-28 (YGRKKRRQRRR-EDPQGDAAOKTDTSHHD). And then, the candidate peptides were synthesized based on their amino acid sequences to evaluate their effects on HCT116 cell viability. Briefly, a total of 1,500 cells per well were seeded in 96-well plates and incubated overnight in a culture medium under appropriate conditions. Following incubation, the cells were treated with indicated peptides (5 mg/mL) at the desired concentrations for 24 h. Cell viability was then assessed using the CCK-8 assay (Dojindo, Japan), following the manufacturer’s instructions. After adding the CCK-8 reagent and incubating for the recommended time, absorbance was measured at 450 nm using a spectrophotometric plate reader (Bio-Tek, United States). Furthermore, HCT116 cells were treated with varying concentrations of YG-22 (0, 2, 4, 6, 8, and 10 mg/mL) for either 24 or 48 h to determine the IC50 values. After the incubation with YG-22 (IC50 concentration) for 48 h, the HCT116 cells were collected for subsequent analyses, including RNA sequencing (RNA-seq) to evaluate gene expression profiles, liquid chromatography-mass spectrometry (LC-MS) for metabolite analysis, assay for transposase-accessible chromatin using sequencing (ATAC-seq) to assess chromatin accessibility, and chromatin immunoprecipitation sequencing (ChIP-seq) to study the H3K4Me3 profiling and NF-κB protein-DNA interactions.
There were at least three biological replicates, excluding ATAC-seq and ChIP-seq analysis, for each group. Cell viability evaluation data were reported as means ± SEM. Student’s t-test (two-tailed) or one-way ANOVA with Bonferroni’s multiple comparison test were used. P-values of <0.05, or 0.01, or 0.001 were deemed significant.

NF-κB in HCT116 cells = assay: ChIP-seq of NF-κB binding in YG-22-treated cells; assay type: cell-based, human
Text: as §1, with “interactions. […]” for “interactions.”
Bioinformatics analysis included quality control using FastQC, adapter trimming with fastp, and alignment of clean reads to the human reference genome (hg38) using Bowtie2. […]

H3K4Me3 in HCT116 cells = assay: ChIP-seq H3K4Me3 profiling of YG-22-treated cells; assay type: cell-based, human; conditions: 48 h
Text: as §1
ChIP-seq analysis for H3K4Me3 profiling and NF-κB protein-DNA interactions was conducted using a combination of chromatin immunoprecipitation and high-throughput sequencing. HCT116 cells (5 × 10^6) were fixed with 1% formaldehyde to crosslink proteins and DNA, followed by quenching with glycine and lysis to isolate chromatin. The chromatin was sonicated to fragment DNA, and immunoprecipitation was performed using specific antibodies for H3K4Me3 and NF-κB, coupled with Protein A + G magnetic beads. The immunoprecipitated complexes were reverse crosslinked, and DNA was purified. High-throughput sequencing libraries were prepared through end repair, A-tailing, adapter ligation, and PCR amplification, targeting fragment sizes of 100–300 bp. Sequencing was performed on the Illumina NovaSeq 6,000 platform.
Bioinformatics analysis included quality control using FastQC, adapter trimming with fastp, and alignment of clean reads to the human reference genome (hg38) using Bowtie2. Peak calling was conducted with MACS2 to identify binding sites and histone modifications, followed by annotation using ChIPseeker. Motif analysis, using MEME and HOMER, identified enriched motifs within peak regions, particularly for NF-κB binding. Functional enrichment analysis was carried out with KEGG pathways to link identified peaks to pathways. Visualization tools, such as heatmaps and Circos plots, were used to highlight binding site distribution and signal enrichment across the genome, providing insights into chromatin modifications and transcription factor interactions under experimental conditions.

HCT116 cells [2] = assay: Transcriptome analysis (RNA-seq) of YG-22-treated cells; assay type: cell-based; conditions: HCT116, YG-22 1.769 mg/mL, 48 h, treated vs control
Text: After comparing the differential expressed peptides between two treatment groups: chemotherapy alone (n = 5) and chemotherapy combined with Jianpi formula (n = 5). Six candidate peptides were finally screened out, including YP-16 (YGRKKRRQRRR-GPSVP), YP-17 (YGRKKRRQRRR-OLTSGP), YG-22 (YGRKKRRQRRR-DGSPGKDGVRG), YM-22 (YGRKKRRQRRR-LGEAFDGARDM), YP-23 (YGRKKRRQRRR-MEPLGRQLTSGP), and YD-28 (YGRKKRRQRRR-EDPQGDAAOKTDTSHHD). And then, the candidate peptides were synthesized based on their amino acid sequences to evaluate their effects on HCT116 cell viability. […] Cell viability was then assessed using the CCK-8 assay (Dojindo, Japan), following the manufacturer’s instructions. After adding the CCK-8 reagent and incubating for the recommended time, absorbance was measured at 450 nm using a spectrophotometric plate reader (Bio-Tek, United States). […]
For transcriptome analysis, treated and control HCT116 cells (1 × 10^5) are collected, and total RNA is extracted using RNA isolation kit (Qiagen, Germany) following the manufacturer’s instructions. Total RNA samples were prepared with an initial concentration of at least 20 ng/μL and a total quantity of at least 2 μg, ensuring an A260/A280 ratio between 1.9 and 2.1 for quality control. mRNA was isolated using oligo-dT beads to capture polyA-tailed transcripts, followed by thermal fragmentation into 200–300 bp fragments. […]

HCT116 cells [3] = assay: Chromatin accessibility analysis (ATAC-seq) of YG-22-treated cells; assay type: cell-based; conditions: HCT116, YG-22 1.769 mg/mL, 48 h
Text: as §1, with “After the incubation with YG-22 (IC50 concentration) for 48 h, the HCT116 cells were collected for subsequent analyses, including RNA sequencing (RNA-seq) to evaluate gene expression profiles, liquid chromatography-mass spectrometry (LC-MS) for metabolite analysis, assay for transposase-accessible chromatin using sequencing (ATAC-seq) to assess chromatin accessibility, and chromatin immunoprecipitation sequencing (ChIP-seq) to study the H3K4Me3 profiling and NF-κB protein-DNA interactions.” left out

HCT116 cells [4] = assay: Metabolomics analysis (LC-MS) of YG-22-treated cells; assay type: cell-based; conditions: HCT116, YG-22 1.769 mg/mL, 48 h
Text: as §1
For metabolomics analysis, treated and control HCT116 cells (1 × 10^5) are collected, washed with cold PBS, and lysed using 80% methanol to extract metabolites. The lysates are centrifuged at 12,000–15,000 × g at 4°C, and the supernatants are stored at −80°C. Metabolite profiling is performed using liquid chromatography-mass spectrometry (LC-MS) with a reverse-phase LC column and gradient elution, followed by high-resolution mass spectrometry in positive and/or negative ion modes. Data preprocessing involves peak detection, alignment, normalization, and filtering using software such as XCMS or Compound Discoverer. Metabolites are identified by matching m/z values, retention times, and fragmentation patterns to databases like HMDB or METLIN, with MS/MS used for structural confirmation. […] The results are visualized with heatmaps, volcano plots, and pathway diagrams, providing insights into metabolic changes induced by treatment.

[5] = HCT116, YG-22 1.769 mg/mL, ChIP-seq

YGRKKRRQRRR-EDPQGDAAOKTDTSHHD [YD-28]
effect on HCT116 cell viability (HCT116 cells [1]): notably reduced cell viability

YGRKKRRQRRR-LGEAFDGARDM (YGRKKRRQRRRLGEAFDGARDM) [YM-22]
effect on HCT116 cell viability (HCT116 cells [1]): notably reduced cell viability

YGRKKRRQRRR-OLTSGP [YP-17]
effect on HCT116 cell viability (HCT116 cells [1]): notably reduced cell viability

YGRKKRRQRRRDGSPGKDGVRG [YG-22]
downregulated NF-κB peaks (NF-κB in HCT116 cells; HCT116, YG-22, 48 h, ChIP-seq): 36 | upregulated NF-κB peaks (NF-κB in HCT116 cells; HCT116, YG-22, 48 h, ChIP-seq): 26 | NF-κB peaks in distal intergenic regions (NF-κB in HCT116 cells; HCT116, YG-22-treated, 48 h, control 28.9%): 38.4% | downregulated differential H3K4me3 peaks (H3K4Me3 in HCT116 cells; [5]): 385 | upregulated differential H3K4me3 peaks (H3K4Me3 in HCT116 cells; [5]): 97 | intronic H3K4me3 peaks (H3K4Me3 in HCT116 cells; HCT116, YG-22-treated, control 5.2%): 4.5% | intergenic H3K4me3 peaks (H3K4Me3 in HCT116 cells; HCT116, YG-22-treated, control 7.1%): 6.3% | promoter-associated H3K4me3 peaks (H3K4Me3 in HCT116 cells; HCT116, YG-22-treated, control 86.3%): 87.8% | downregulated genes (DEGs) (HCT116 cells [2]): 252 | upregulated genes (DEGs) (HCT116 cells [2]): 236 | downregulated differential chromatin accessibility peaks (HCT116 cells [3]): 1,697 | upregulated differential chromatin accessibility peaks (HCT116 cells [3]): 78 | effect on HCT116 cell viability (HCT116 cells [1]): notably reduced cell viability | downregulated metabolites, negative ion (NEG) mode (HCT116 cells [4]): 127 | downregulated metabolites, positive ion (POS) mode (HCT116 cells [4]): 70 | upregulated metabolites, negative ion (NEG) mode (HCT116 cells [4]): 121 | upregulated metabolites, positive ion (POS) mode (HCT116 cells [4]): 69
